According to ChEMBL document CHEMBL1201862, “PubChem BioAssay data set” (2004):
Active and inactive are the calls of the source.

Legend:
[1] = Luminescence Cell-Based Dose Response HTS to Identify Activators of Luciferase Translation or Activity in H4 […] Cells. [Related pubchem assays: 1829 (Project Summary), 1814 (Primary HTS)]; type: functional
[2] = target: Nuclear receptor subfamily 5 group A member 2 (Homo sapiens, UniProt O00482); type: functional, cell-based;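 further: HEK293T cells transfected with LRH-1 and a StAR promoter luciferase reporter; potency for inhibitors that lower LRH-1 driven reporter light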
Nuclear receptor subfamily 5 group A member 2, sequence (O00482 whole entry): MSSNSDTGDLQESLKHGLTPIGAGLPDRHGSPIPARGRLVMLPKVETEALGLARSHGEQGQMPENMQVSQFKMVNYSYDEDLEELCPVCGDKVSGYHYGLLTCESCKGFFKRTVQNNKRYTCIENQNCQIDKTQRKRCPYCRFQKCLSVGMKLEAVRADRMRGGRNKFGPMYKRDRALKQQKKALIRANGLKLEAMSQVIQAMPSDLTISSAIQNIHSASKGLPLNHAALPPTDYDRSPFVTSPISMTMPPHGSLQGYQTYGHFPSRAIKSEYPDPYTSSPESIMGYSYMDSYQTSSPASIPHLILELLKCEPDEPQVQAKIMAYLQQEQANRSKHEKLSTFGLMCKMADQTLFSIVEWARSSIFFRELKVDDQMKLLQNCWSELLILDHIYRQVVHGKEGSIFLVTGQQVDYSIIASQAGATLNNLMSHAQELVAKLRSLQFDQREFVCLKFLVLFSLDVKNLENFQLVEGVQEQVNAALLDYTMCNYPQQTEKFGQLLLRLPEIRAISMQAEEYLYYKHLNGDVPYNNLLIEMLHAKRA

Steroidogenic factor 1 = Steroidogenic factor 1 (Homo sapiens, UniProt Q13285); experiment: Counterscreen for inverse agonists of the liver receptor homolog-1 (LRH-1; NR5A2): Luminescence-based cell-based high throughput dose response assay to identify inverse agonists of the Steroidogenic Factor 1 Nuclear Receptor (SF1; NR5A1).; type: functional
Steroidogenic factor 1, sequence (Q13285 whole entry): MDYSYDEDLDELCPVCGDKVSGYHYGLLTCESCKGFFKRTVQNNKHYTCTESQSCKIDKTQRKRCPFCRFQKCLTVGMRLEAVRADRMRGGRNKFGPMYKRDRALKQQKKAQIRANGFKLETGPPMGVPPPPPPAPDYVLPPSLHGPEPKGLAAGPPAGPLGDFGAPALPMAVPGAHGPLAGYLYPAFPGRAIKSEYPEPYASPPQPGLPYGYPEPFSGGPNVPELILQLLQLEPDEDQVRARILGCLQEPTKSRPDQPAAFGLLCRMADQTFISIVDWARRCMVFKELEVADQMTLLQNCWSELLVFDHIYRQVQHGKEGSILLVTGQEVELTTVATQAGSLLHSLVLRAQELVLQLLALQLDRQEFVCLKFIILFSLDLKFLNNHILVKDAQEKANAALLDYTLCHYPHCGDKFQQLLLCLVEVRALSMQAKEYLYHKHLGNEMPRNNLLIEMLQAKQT

H4 = experiment: Luminescence Cell-Based Dose Response HTS to Identify Activators of 5'UTR Stem-Loop Driven Prion Protein mRNA Translation in H4 Neuroglioblastoma Cells. [Related pubchem assays: 1829 (Project Summary), 1814 (Primary HTS)]; type: functional; settings: Homo sapiens
[3] = nonselective StAR promoter luciferase inhibitors – cell-based, luminescence, luciferase reporter, counter-screen for LRH-1 inverse agonist project, dose response (AID 651969); type: functional
Prothrombin = Prothrombin (Homo sapiens, UniProt P00734); experiment: Thrombin 1536 HTS Dose Response Confirmation. [Related pubchem assays: 1046 (Thrombin 1536 HTS; hits were confirmed in this assay)]; type: functional
[4] = viability of uninfected HEp-2 cells – cell-based, HTS, cytotoxicity control for RSV inhibitor project, dose response (AID 2410); type: functional; settings: human respiratory syncytial virus
[5] = viability of HCT116 lacking mutant beta-catenin – cell-based, human colon tumor, dose response (AID 1045); type: functional;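 further: HCT116 colon tumor cells with beta catenin knocked out; cells exposed to compound for 60 hours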
[6] = viability of PTEN-deleted HCT116 cells – cell-based, HCT116 PTEN knockout, dose response (AID 1047); type: functional;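 further: HCT116 colon tumor cells with PTEN knocked out; cells exposed to compound for 60 hours before readout; potency for loss of cell viability measured by luminescence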
[7] = target: T1, Rac GTPase-activating protein 1 (Homo sapiens, UniProt Q9H0H5); experiment: blockers of MgcRacGAP-driven Rac1 GTP hydrolysis – biochemical, ADP Hunter fluorescence, primary and confirmatory, confirmation (AID 624330); type: functional
T1 sequence (Q9H0H5 whole entry): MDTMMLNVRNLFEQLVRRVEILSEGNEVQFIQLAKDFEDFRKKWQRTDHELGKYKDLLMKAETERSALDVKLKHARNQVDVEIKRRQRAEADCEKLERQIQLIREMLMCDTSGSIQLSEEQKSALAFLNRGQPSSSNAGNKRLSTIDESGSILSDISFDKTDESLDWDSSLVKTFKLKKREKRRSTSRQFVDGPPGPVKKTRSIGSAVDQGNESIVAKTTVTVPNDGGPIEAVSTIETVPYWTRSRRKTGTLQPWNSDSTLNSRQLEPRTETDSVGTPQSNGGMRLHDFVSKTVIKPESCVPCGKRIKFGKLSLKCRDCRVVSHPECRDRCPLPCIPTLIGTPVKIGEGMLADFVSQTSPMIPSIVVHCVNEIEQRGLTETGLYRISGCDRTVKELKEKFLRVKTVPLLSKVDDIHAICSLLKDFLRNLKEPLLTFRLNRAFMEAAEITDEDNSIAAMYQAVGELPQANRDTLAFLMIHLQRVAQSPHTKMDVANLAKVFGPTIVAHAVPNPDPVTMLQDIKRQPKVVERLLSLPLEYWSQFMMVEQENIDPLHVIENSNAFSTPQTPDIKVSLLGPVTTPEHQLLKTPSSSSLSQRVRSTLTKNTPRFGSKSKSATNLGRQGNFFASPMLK

[8] = target: T2, DNA repair protein RAD52 homolog (Homo sapiens, UniProt P43351); type: functional, biochemical
T2 sequence (P43351 whole entry): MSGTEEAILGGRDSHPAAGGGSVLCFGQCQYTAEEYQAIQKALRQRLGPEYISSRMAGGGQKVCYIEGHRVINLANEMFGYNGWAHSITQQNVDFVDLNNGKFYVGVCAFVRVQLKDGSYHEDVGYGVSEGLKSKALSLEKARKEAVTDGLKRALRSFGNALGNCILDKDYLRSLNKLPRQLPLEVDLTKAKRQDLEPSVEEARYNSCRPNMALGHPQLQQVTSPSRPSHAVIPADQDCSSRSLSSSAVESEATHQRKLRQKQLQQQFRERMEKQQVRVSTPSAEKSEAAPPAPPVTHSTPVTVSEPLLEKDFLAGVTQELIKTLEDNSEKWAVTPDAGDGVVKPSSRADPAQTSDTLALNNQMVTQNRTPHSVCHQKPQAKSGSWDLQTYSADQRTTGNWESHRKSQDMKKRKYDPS

fMet-Leu-Phe receptor = target: T3, fMet-Leu-Phe receptor (Homo sapiens, UniProt P21462); experiment: formyl peptide receptor binders – dose response (AID 519); type: functional
T3 sequence (P21462 whole entry): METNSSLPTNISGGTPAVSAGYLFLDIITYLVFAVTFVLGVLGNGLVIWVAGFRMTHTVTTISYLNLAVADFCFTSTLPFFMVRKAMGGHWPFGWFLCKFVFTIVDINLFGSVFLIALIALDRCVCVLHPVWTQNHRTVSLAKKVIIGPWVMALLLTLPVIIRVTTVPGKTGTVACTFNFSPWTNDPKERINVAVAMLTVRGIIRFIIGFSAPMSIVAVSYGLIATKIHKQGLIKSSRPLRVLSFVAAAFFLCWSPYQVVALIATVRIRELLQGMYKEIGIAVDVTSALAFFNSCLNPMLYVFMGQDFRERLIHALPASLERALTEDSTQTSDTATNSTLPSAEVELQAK

[9] = OVCAR-3 cell viability loss – plate reader, dry powder samples, PAX8 inhibitor project, dose response (AID 743044); type: functional, cell-based
Paired box protein Pax-8 = Paired box protein Pax-8 (Homo sapiens, UniProt Q06710); experiment: PAX8 transcriptional activity inhibition in RMG-I – RMG-I cells, luciferase, cherry-pick, dose response (AID 687027); type: functional, cell-based;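 further: luciferase reporter driven by Pax8 target thyroperoxidase promoter measured by SteadyGlo luminescence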
Paired box protein Pax-8, sequence (Q06710 whole entry): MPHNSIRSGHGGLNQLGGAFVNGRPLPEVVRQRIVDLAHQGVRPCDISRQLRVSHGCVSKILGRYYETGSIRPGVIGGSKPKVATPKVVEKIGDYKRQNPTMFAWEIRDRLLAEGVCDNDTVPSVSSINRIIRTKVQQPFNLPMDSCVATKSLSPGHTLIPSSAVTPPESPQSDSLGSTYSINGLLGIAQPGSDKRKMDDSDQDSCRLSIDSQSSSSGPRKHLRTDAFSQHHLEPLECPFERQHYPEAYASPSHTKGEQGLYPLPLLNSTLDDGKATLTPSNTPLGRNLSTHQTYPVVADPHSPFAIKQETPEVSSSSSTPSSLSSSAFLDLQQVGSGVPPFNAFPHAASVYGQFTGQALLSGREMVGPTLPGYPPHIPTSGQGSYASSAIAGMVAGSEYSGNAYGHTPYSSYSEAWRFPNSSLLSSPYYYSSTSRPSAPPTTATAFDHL

[10] = OVCAR8 cell viability loss – plate reader, dry powder samples, PAX8 project, dose response (AID 743197); type: functional, cell-based; settings: OVCAR-8
[11] = IGROV1 cell killing – plate reader, dry powder samples, PAX8 inhibitor project, dose response (AID 743043); type: functional, cell-based; settings: IGROV-1
[12] = A cytotoxicity screen of small molecule inhibitors of the PhoP region in Salmonella typhi identified in the primary screen. [Related pubchem assays: 1850, 1864, 1985 ]; type: functional
[13] = target: T4, Tyrosine-protein phosphatase non-receptor type 7 (Homo sapiens, UniProt P35236); experiment: HePTP tyrosine phosphatase activity blockers – biochemical, absorbance, leukemia target, primary screen (AID 521); type: functional
T4 sequence (P35236 whole entry): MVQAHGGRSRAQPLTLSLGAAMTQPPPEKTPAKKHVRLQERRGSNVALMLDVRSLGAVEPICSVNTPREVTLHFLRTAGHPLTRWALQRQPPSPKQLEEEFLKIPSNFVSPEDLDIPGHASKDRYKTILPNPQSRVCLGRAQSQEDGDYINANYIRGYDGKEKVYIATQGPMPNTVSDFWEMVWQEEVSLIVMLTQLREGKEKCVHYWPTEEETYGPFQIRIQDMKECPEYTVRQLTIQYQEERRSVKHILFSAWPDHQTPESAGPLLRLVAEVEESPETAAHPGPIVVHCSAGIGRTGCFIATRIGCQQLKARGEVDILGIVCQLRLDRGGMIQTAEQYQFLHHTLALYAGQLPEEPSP

Cc1no[n+]([O-])c1COc1ccccc1/C=N/n1nnnc1N
EC50 [1]: 7.52 µM (active) | IC50 [2]: 35.9 µM (inactive) | IC50 (Steroidogenic factor 1): 35.9 µM (inactive) | EC50 (H4): 98.6 µM (active) | IC50 [3]: 35.9 µM (inactive)

O=C1CCC(C(=O)Nc2cccc3ccccc23)N1 (stereo not drawn)
IC50 (Prothrombin): > 50 µM (not active)

COc1ccc(-c2nnc(SCC(=O)Nc3sc4c(c3C#N)CCCC4)n2-c2ccccc2)cc1
CC50 [4]: 9.89 µM (active) | EC50 [5]: 5.75 µM (active) | EC50 [6]: 5.14 µM (active)

CCCCN(CC)CCNC(=O)CCC(=O)Nc1ccc2nc(N3CCN(C)CC3)cc(C)c2c1
IC50 [7]: 164 µM (active) | AC50 [8]: 3.22 µM (active)

COc1ccc(OC)c(C2C(C(=O)c3cccs3)=C(O)C(=O)N2c2cc(C)on2)c1 (stereo not drawn)
Ki (fMet-Leu-Phe receptor): > 66.7 µM (inactive)

Cc1csc(NC(=O)CCn2c(=O)oc3ccccc32)n1
Ki (fMet-Leu-Phe receptor): > 66.7 µM (inactive)

CCCNC(=O)CS(=O)(=O)Cc1nc(-c2cccc(OC)c2)oc1C
Ki (fMet-Leu-Phe receptor): > 66.7 µM (inactive)

COCCN(CCOC)S(=O)(=O)c1ccc(C(=O)Nc2nc3c(s2)CCc2ccccc2-3)cc1
EC50 [5]: 13.1 µM (active) | EC50 [6]: 8.49 µM (active)

C[C@@H]1CN([C@@H](C)CO)C(=O)c2cc(NC(=O)CCC(F)(F)F)ccc2O[C@@H](C)CCCCO[C@H]1CN(C)Cc1ccc(C(F)(F)F)cc1
AC50 [9]: 17.2 µM (active) | AC50 (Paired box protein Pax-8): 2.43 µM (active) | AC50 [10]: 50.8 µM (active) | AC50 [11]: 65.5 µM (active)

Cc1occc1C(=O)N/N=C/C=C/c1ccccc1
EC50 [12]: > 50 µM (active)

C1=C(CCNCc2ccccc2)CCCC1
EC50 [12]: > 50 µM (active)

c1ccc(-c2nn[nH]c2-c2ccccc2)cc1
IC50 [13]: > 100 µM (not active)
